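Five compound concentrations were applied to cells in 96-well plates for 48 hours; endpoints were derived by simple linear interpolation of the resulting dose-response curve. GI50 marks 50% less growth.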 Calls of active or inactive are those of the source. Cut-off read from the data, not from the text of the source: active = GI50 up to about 1.1 µM and inactive = higher.
Legend:
Experiment in all cases: NCI tumour cell line growth inhibition, 48 h
786-0 = tested on: 786-0
A549 = tested on: A549
ACHN = tested on: ACHN
BT-549 = tested on: BT-549
CAKI-1 = tested on: CAKI-1
CCRF-CEM = tested on: CCRF-CEM
COLO 205 = tested on: COLO 205
DU-145 = tested on: DU-145
EKVX = tested on: EKVX
HCC 2998 = tested on: HCC 2998
HCT-116 = tested on: HCT-116
HCT-15 = tested on: HCT-15
HL-60 = tested on: HL-60
HOP-62 = tested on: HOP-62
HOP-92 = tested on: HOP-92
HT-29 = tested on: HT-29
Hs-578T = tested on: Hs-578T
IGROV-1 = tested on: IGROV-1
K562 = tested on: K562
KM12 = tested on: KM12
LOX IMVI = tested on: LOX IMVI
M14 = tested on: M14
MCF7 = tested on: MCF7
MDA-MB-231 = tested on: MDA-MB-231
MDA-MB-435 = tested on: MDA-MB-435
MDA-N = tested on: MDA-N
MOLT-4 = tested on: MOLT-4
Malme-3M = tested on: Malme-3M
NCI-H226 = tested on: NCI-H226
NCI-H23 = tested on: NCI-H23
NCI-H522 = tested on: NCI-H522
NCI/ADR-RES = tested on: NCI/ADR-RES
OVCAR-3 = tested on: OVCAR-3
OVCAR-4 = tested on: OVCAR-4
OVCAR-5 = tested on: OVCAR-5
OVCAR-8 = tested on: OVCAR-8
PC-3 = tested on: PC-3
RPMI-8226 = tested on: RPMI-8226
SF-268 = tested on: SF-268
SF-295 = tested on: SF-295
SF-539 = tested on: SF-539
SK-MEL-2 = tested on: SK-MEL-2
SK-MEL-5 = tested on: SK-MEL-5
SK-OV-3 = tested on: SK-OV-3
SN12C = tested on: SN12C
SNB-19 = tested on: SNB-19
SNB-75 = tested on: SNB-75
SR = tested on: SR
SW-620 = tested on: SW-620
T47D = tested on: T47D
TK-10 = tested on: TK-10
U-251 = tested on: U-251
UACC-257 = tested on: UACC-257
UACC-62 = tested on: UACC-62
UO-31 = tested on: UO-31

Measured: GI50

C#C[C@]1(O)CC[C@H]2[C@@H]3CCC4=C/C(=N/NC(=O)c5cccc6c(=O)c7ccccc7[nH]c56)CCC4[C@H]3CC[C@@]21C (stereo not given in full)
73.8 µM: HCT-15
inactive: 786-0 35.6 µM | A549 60.3 µM | ACHN 65.6 µM | BT-549 19.2 µM | CAKI-1 > 100 µM | CCRF-CEM 40.3 µM | COLO 205 70 µM | DU-145 > 100 µM | EKVX 77.8 µM | HCC 2998 47.9 µM | HCT-116 53 µM | HL-60 26.4 µM | HOP-62 > 100 µM | HOP-92 > 100 µM | HT-29 30.3 µM | Hs-578T 32.1 µM | IGROV-1 82.2 µM | K562 73.5 µM | KM12 25.5 µM | LOX IMVI 58.1 µM | M14 59.8 µM | MCF7 43.4 µM | MDA-MB-231 > 100 µM | MDA-MB-435 38.7 µM | MDA-N 50.4 µM | MOLT-4 24.1 µM | Malme-3M 18 µM | NCI-H226 73.8 µM | NCI-H23 27.1 µM | NCI-H522 15.8 µM | NCI/ADR-RES 55.5 µM | OVCAR-3 32.3 µM | OVCAR-4 45.8 µM | OVCAR-5 > 100 µM | OVCAR-8 21.3 µM | PC-3 34.7 µM | RPMI-8226 28.8 µM | SF-268 > 100 µM | SF-295 43.4 µM | SF-539 34.7 µM | SK-MEL-2 33 µM | SK-MEL-5 24.4 µM | SK-OV-3 > 100 µM | SN12C > 100 µM | SNB-19 86.3 µM | SNB-75 15 µM | SR 28.4 µM | SW-620 49.8 µM | T47D 30.8 µM | TK-10 57.5 µM | U-251 29.8 µM | UACC-257 35.5 µM | UACC-62 30.8 µM | UO-31 20.5 µM

Source: ChEMBL document CHEMBL1201862, “PubChem BioAssay data set” (2004)
